Reference: US20030113385A1, “Use of combinations of active agents consisting of antimicrobially active substances and plant extracts containing terpene in veterinary medicine” (Boehringer Ingelheim Vetmedica GmbH, priority 1998, published 2003)

Legend:
Staphylococcus aureus [1] = assay: MIC on growth of Staphylococcus aureus in milk, microtitre plates, fluorometric; type: cell-based; conditions: for MIC: Staphylococcus aureus, read-out: average MIC (+standard deviation)
Method: (§1) The sensitivity tests and the experiments carried out with combinations of active agents—using the so-called Checkerboard design—in broth (nutrient medium) and milk, were carried out using microtitre plates. Three capsule-positive and three capsule-negative strains of Staphylococcus aureus were used. The so-called MIC value was determined by fluorometric methods (in milk).
(§2) The concentration of the standard solution of the tea tree oil used was 4% vol/vol.
(§3) The highest concentration used in the tests was 1/10th of the original standard solution, i.e. 0.4 vol-%.
2 Effect of tea tree oil on the growth of Staphylococcus aureus in normal milk. Each strain was tested four times.
(§4) 3 Susceptibility of Staphylococcus aureus to selected antibacterial agents in nutrient medium (ISB) and milk. […] Each strain was tested […].

Staphylococcus aureus [2] = assay: MIC on growth of Staphylococcus aureus in nutrient solution (ISB), microtitre plates, turbidity; type: cell-based; conditions: for MIC: Staphylococcus aureus, read-out: average MIC (+standard deviation)
Method: as §1, §2, §3
1 Effect of tea tree oil (Ttoil) on the growth of Staphylococcus aureus in nutrient solution (ISB).
The results are given as the average minimum inhibitory concentration from four repeats
as §4

[3] = three capsule negative Staph. aureus strains
[4] = three capsule positive Staph. aureus strains

Compound | MIC (Staphylococcus aureus [1]; [3]) [µg/mL] | MIC (Staphylococcus aureus [1]; [4]) [µg/mL] | MIC range (in brackets) (Staphylococcus aureus [1]; [3]) | MIC (Staphylococcus aureus [2]; [3]) [µg/mL] | MIC (Staphylococcus aureus [2]; [4]) [µg/mL] | MIC range (in brackets) (Staphylococcus aureus [2]; [3]) | MIC range (in brackets) (Staphylococcus aureus [2]; [4]) | average MIC (+standard deviation) (Staphylococcus aureus [1]; [3]) [µg/mL] | MIC range (in brackets) (Staphylococcus aureus [1]; [4]) | average MIC (+standard deviation) (Staphylococcus aureus [1]; [4]) [µg/mL] | average MIC (+standard deviation) (Staphylococcus aureus [2]; [3]) [µg/mL] | average MIC (+standard deviation) (Staphylococcus aureus [2]; [4]) [µg/mL]
CC(=O)OCC1=C(C(=O)O)N2C(=O)[C@@H](NC(=O)Cc3cccs3)[C@H]2SC1 [Cephalothin, cephalothin] | 0.167 ± 0.018 | 0.25 | (0.125-0.25) μg/ml | 0.188 ± 0.019 | 0.188 ± 0.019 | (0.125-0.25) μg/ml | (0.125-0.25) μg/ml |  |  |  |  | 
spiramycin |  |  | (6.25-50) μg/ml |  |  | (10-20) μg/ml | (10-20) μg/ml | 25.52 ± 4.82 | (12.5-50) μg/ml | 25 ± 3.77 | 15 ± 1.5 | 15.83 ± 1.49
CC1(C)S[C@@H]2[C@H](NC(=O)[C@H](N)c3ccccc3)C(=O)N2[C@H]1C(=O)O [Ampicillin, ampicillin] | 0.104 ± 0.009 | 0.12 ± 0.005 |  | 0.198 ± 0.018 | 0.188 ± 0.019 |  |  |  |  |  |  | 
CC1(C)S[C@@H]2[C@H](NC(=O)Cc3ccccc3)C(=O)N2[C@H]1C(=O)O [Penicillin G, penicillin G] |  |  | (0.013-0.05) μg/ml |  |  | (0.025-0.05) μg/ml | (0.025-0.05) μg/ml | 0.031 ± 0.005 | (0.013-0.025) μg/ml | 0.022 ± 0.002 | 0.033 ± 0.004 | 0.035 ± 0.004
